Read-outs that look alike come from different tables or passages of the source.
What was measured:
[1] = Revankar et al. 1984; cited from earlier work
[2] = system: lymphocytes (peripheral blood mononuclear cells); experiment: Pokeweed mitogen (PWM) induced lymphocyte proliferation; format: cell-based, human; set-up: 3H-thymidine incorporation: unit not given here
Procedure: Peripheral blood mononuclear cells were isolated from heparinized peripheral blood of normal healthy donors as described in Sharma, B. and S. Gupta, "Antigen-specific primary cytotoxic T lymphocyte response in acquired immune deficiency syndrome (AIDS) and AIDS related complex", Clin. Exp. Immunol., 62:296, 1985. Briefly, blood was diluted 1:1 with Hanks balanced salt solution (HBSS). Peripheral blood mononuclear cells were separated on a Ficoll-Hypaque gradient. The peripheral blood mononuclear cells recovered from the interface were washed three times with HBSS and resuspended in RPMI-1640 containing 100 U/ml penicillin, 100 μg/ml streptomycin 2mM L-glutamine (GIBCO, Grand Island, N.Y.), and 10% heat-inactivated pooled A serum (Irvine Scientific, Irvine, Calif.), hereafter referred as complete medium (CM). […] T. Terasaki, "Effect of water soluble adjuvants on in vitro lymphocyte immunization", Cancer Res. 35:666, 1975. […] The culture were set up in quadruplicate and pulsed with [^3 H]-thymidine for 16 hr and the [^3 H] thymidine incorporation was determined.

[3] = system: T lymphocytes (peripheral blood mononuclear cells); experiment: Cyclosporin A induced suppression of lymphocyte response to phytohemagglutinin / T cell mitogens, and its restoration; format: cell-based, human
Procedure: (§1) Peripheral blood mononuclear cells were isolated from heparinized peripheral blood of normal healthy donors as described in Sharma, B. and S. Gupta, "Antigen-specific primary cytotoxic T lymphocyte response in acquired immune deficiency syndrome (AIDS) and AIDS related complex", Clin. Exp. Immunol., 62:296, 1985. Briefly, blood was diluted 1:1 with Hanks balanced salt solution (HBSS). Peripheral blood mononuclear cells were separated on a Ficoll-Hypaque gradient. The peripheral blood mononuclear cells recovered from the interface were washed three times with HBSS and resuspended in RPMI-1640 containing 100 U/ml penicillin, 100 μg/ml streptomycin 2mM L-glutamine (GIBCO, Grand Island, N.Y.), and 10% heat-inactivated pooled A serum (Irvine Scientific, Irvine, Calif.), hereafter referred as complete medium (CM).
(§2) Cultures were pulsed for 16 hr and [^3 H]-thymidine incorporation was measured.
(§3) Peripheral blood mononuclear cells from normal donors were incubated with T cell mitogens in the presence and absence of this compound and then [^3 H-thymidine incorporation was measured.
Peripheral blood mononuclear cells were cultured with phytohemagglutinin in the presence of CsA (10 and 50 ng/0.2 ml) and 6-amino-(2-deoxy-α-D-erythro-pentofuranosyl)-imidazo[4,5,-C]pyridin- 4-one. Lymphocytes proliferation was determined by ^3 H-thymidine incorporation.

[4] = system: T lymphocytes (peripheral blood mononuclear cells); experiment: Cyclosporin A induced suppression of lymphocyte response to Concanavalin A, and its restoration; format: cell-based, human; conditions: FIG. 4; Con A
Procedure: Briefly, blood was diluted 1:1 with Hanks balanced salt solution (HBSS). Peripheral blood mononuclear cells were separated on a Ficoll-Hypaque gradient.
as §2, §3
Lymphocytes proliferation was determined by ^3 H-thymidine incorporation.

[5] = system: human mixed lymphocyte culture; experiment: Mixed lymphocyte response / culture (alloantigens); format: cell-based
Procedure: as §1
Peripheral blood mononuclear cells (1×10^5 /0.2 ml/well) from donor-A were cultured together with different numbers of peripheral blood mononuclear cells ([…]) of peripheral blood mononuclear cells from the other donor for 96 hr as previously described above for the lymphocyte response to plant mitogens. Cultures were pulsed with [^3 H]-thymidinefor additional 16 hrs.

[6] = system: B target cells (PHA induced lymphoblasts of donor B); experiment: Generation of antigen-specific primary cytotoxic T lymphocytes, 51Cr release, target B; format: cell-based, human; conditions: for % Specific Cytotoxicity: Exp. 1, A + Bx, no compound 7
Procedure: Peripheral blood mononuclear cells from healthy donor A and C were cultured together with irradiated (3000 R) peripheral blood mononuclear cells from donor B and irradiated cells (SX) from B cells of the SB cell line, respectively, for five days. At the end of the incubation period, the cells were washed and resuspended in medium and then their cytotoxic activity was determined against the specific lymphoblast target cell B or S according to the procedure of Sharma and Gupta noted above.

In the case of `Nc1cc2c(ncn2[C@@H]2C[C@H](O)[C@@H](CO)O2)c(O)n1` [Test Compound, 6-amino-1-(2-deoxy-α-D-erythro-pentofuranosyl)imidazo[4,5-C]-pyridin-4-one], the antitumor activity [1] is listed as “devoid of any useful antitumor activity”, the “maximum increase of Pokeweed mitogen induced proliferation” value [2] is listed as 18% and the activation at 6 µM ([2]; Homo sapiens, Lymphocyte, donor 1, control 53384, 0.006 mM, read-out: % Increase (+)) is listed as 18%. It also gave an activation at 25 µM ([2]; Homo sapiens, Lymphocyte, donor 1, control 53384, 0.025 mM, read-out: % Increase (+)) of 8%, an activation at 6 µM ([2]; Homo sapiens, Lymphocyte, donor 1, second control 58731, 0.006 mM, read-out: % Increase (+)) of 4% and an activation at 6 µM ([2]; Homo sapiens, Lymphocyte, donor 4, 0.006 mM, read-out: % Increase (+)) of 4%. It also gave an inhibition at 50 µM ([2]; Homo sapiens, PBMC, donor 1, control 53384, 0.05 mM, read-out: % Decrease (-)) of 14%, an inhibition at 25 µM ([2]; Homo sapiens, PBMC, donor 1, second control 58731, 0.025 mM, read-out: % Decrease (-)) of 1% and an inhibition at 50 µM ([2]; Homo sapiens, PBMC, donor 1, second control 58731, 0.05 mM, read-out: % Decrease (-)) of 7%. It also gave an inhibition at 25 µM ([2]; Homo sapiens, PBMC, donor 2, 0.025 mM, read-out: % Decrease (-)) of 19%, an inhibition at 50 µM ([2]; Homo sapiens, PBMC, donor 2, 0.05 mM, read-out: % Decrease (-)) of 19% and an inhibition at 125 µM ([2]; Homo sapiens, PBMC, donor 2, 0.125 mM, read-out: % Decrease (-)) of 16%. It also gave an inhibition at 6 µM ([2]; Homo sapiens, PBMC, donor 3, 0.006 mM, read-out: % Decrease (-)) of 4%, an inhibition at 25 µM ([2]; Homo sapiens, PBMC, donor 3, 0.025 mM, read-out: % Decrease (-)) of 22% and an inhibition at 200 µM ([2]; Homo sapiens, PBMC, donor 3, 0.2 mM, read-out: % Decrease (-)) of 27%. The inhibition at 25 µM ([2]; Homo sapiens, PBMC, donor 4, 0.025 mM, read-out: % Decrease (-)) was 11%, the inhibition at 50 µM ([2]; Homo sapiens, PBMC, donor 4, 0.05 mM, read-out: % Decrease (-)) was 18% and the 3H-thymidine incorporation ([2]; donor 1, control 53384, 0.006 mM) was 62772 ± 2781. For the same molecule, the 3H-thymidine incorporation ([2]; donor 1, control 53384, 0.025 mM) was 56449 ± 2090, the 3H-thymidine incorporation ([2]; donor 1, control 53384, 0.05 mM) was 45844 ± 1152 and the 3H-thymidine incorporation ([2]; donor 1, second control 58731, 0.006 mM) was 61100 ± 4701. For the same molecule, the 3H-thymidine incorporation ([2]; donor 1, second control 58731, 0.025 mM) was 57852 ± 3166, the 3H-thymidine incorporation ([2]; donor 1, second control 58731, 0.05 mM) was 54840 ± 942 and the 3H-thymidine incorporation ([2]; donor 2, 0.025 mM) was 67565 ± 5857. For the same molecule, the 3H-thymidine incorporation ([2]; donor 2, 0.05 mM) was 67429 ± 3657, the 3H-thymidine incorporation ([2]; donor 2, 0.125 mM) was 70197 ± 5940 and the 3H-thymidine incorporation ([2]; donor 3, 0.006 mM) was 40425 ± 1158. For the same molecule, the 3H-thymidine incorporation ([2]; donor 3, 0.025 mM) was 32818 ± 4806, the 3H-thymidine incorporation ([2]; donor 3, 0.2 mM) was 30453 ± 2974 and the 3H-thymidine incorporation ([2]; donor 4, 0.006 mM) was 39090 ± 4853. For the same molecule, the 3H-thymidine incorporation ([2]; donor 4, 0.025 mM) was 33122 ± 4539, the 3H-thymidine incorporation ([2]; donor 4, 0.05 mM) was 30500 ± 2132 and the “suppressive effect on Pokeweed mitogen induced proliferation” value ([2]; especially at relatively higher concentrations) was “generally a suppressive effect”. For the same molecule, the “immunopotentiating effect on Pokeweed mitogen induced proliferation” value ([2]; listed as 6-Amino-(2-deoxy-α-D-erythro-pentofuranosyl)-imidazo[4,5,-C]pyridin-4-one) was “did not have any significant immunopotentiating effect”, the “T cell proliferative response after addition of compound” value ([3]; FIG. 3, PHA + Cyclosporin A + compound) was 43,000 CPM and the “reversal of cyclosporin mediated suppression (partial)” value ([3]; magnitude of cyclosporin mediated suppression higher, T cell mitogens) was “over 50%”. The “restoration of lymphocyte proliferation” value ([3]; suppression about half of the total response, mitogen not stated) was “completely restored the lymphocyte proliferation”, the “reconstitution of immune response” value ([3]; suppression low, lower concentration of cyclosporin, T cell mitogens) was “essentially complete” and the “reversal of Cyclosporin A mediated suppression” value [4] was “completely reversed”. For the same molecule, the “effect on mixed lymphocyte response” value ([5]; 2-way mixed lymphocyte culture) was “markedly increased the mixed lymphocyte response in a dose dependent manner in most of the cases”, the “maximal increase of mixed lymphocyte response” value ([5]; 2-way mixed lymphocyte culture) was 91% and the “3H-thymidine incorporation in MLC” value ([5]; A + B (0.5 × 10^5), 0.0125 mM) was 14814 ± 929 CPM. The “3H-thymidine incorporation in MLC” value ([5]; A + B (0.5 × 10^5), 0.025 mM) was 18978 ± 1048 CPM, the “3H-thymidine incorporation in MLC” value ([5]; A + B (0.5 × 10^5), 0.05 mM) was 21399 ± 1759 CPM and the “3H-thymidine incorporation in MLC” value ([5]; A + B (0.5 × 10^5), 0.2 mM) was 22448 ± 1609 CPM. For the same molecule, the “3H-thymidine incorporation in MLC” value ([5]; A + B (0.5 × 10^5), 0.4 mM) was 21593 ± 3007 CPM, the “3H-thymidine incorporation in MLC” value ([5]; A + B (1 × 10^5), 0.0125 mM) was 26858 ± 2392 CPM and the “3H-thymidine incorporation in MLC” value ([5]; A + B (1 × 10^5), 0.025 mM) was 21794 ± 7136 CPM. The “3H-thymidine incorporation in MLC” value ([5]; A + B (1 × 10^5), 0.05 mM) was 33532 ± 1732 CPM, the “3H-thymidine incorporation in MLC” value ([5]; A + B (1 × 10^5), 0.2 mM) was 30790 ± 1912 CPM and the “3H-thymidine incorporation in MLC” value ([5]; A + B (1 × 10^5), 0.4 mM) was 30261 ± 1835 CPM. The “3H-thymidine incorporation in MLC” value ([5]; A + B (2 × 10^5), 0.0125 mM) was 18608 ± 2511 CPM, the “3H-thymidine incorporation in MLC” value ([5]; A + B (2 × 10^5), 0.025 mM) was 23548 ± 4439 CPM and the “3H-thymidine incorporation in MLC” value ([5]; A + B (2 × 10^5), 0.05 mM) was 25299 ± 4479 CPM. For the same molecule, the “3H-thymidine incorporation in MLC” value ([5]; A + B (2 × 10^5), 0.2 mM) was 29209 ± 2804 CPM, the “3H-thymidine incorporation in MLC” value ([5]; A + B (2 × 10^5), 0.4 mM) was 27940 ± 3679 CPM and the “3H-thymidine incorporation in MLC” value ([5]; B + A (0.5 × 10^5), 0.0125 mM) was 17045 ± 982 CPM. The “3H-thymidine incorporation in MLC” value ([5]; B + A (0.5 × 10^5), 0.025 mM) was 19538 ± 3053 CPM, the “3H-thymidine incorporation in MLC” value ([5]; B + A (0.5 × 10^5), 0.05 mM) was 20799 ± 1068 CPM and the “3H-thymidine incorporation in MLC” value ([5]; B + A (0.5 × 10^5), 0.2 mM) was 19346 ± 20799 CPM. For the same molecule, the “3H-thymidine incorporation in MLC” value ([5]; B + A (0.5 × 10^5), 0.4 mM) was 13779 ± 3043 CPM, the “3H-thymidine incorporation in MLC” value ([5]; B + A (2 × 10^5), 0.0125 mM) was 18538 ± 1601 CPM and the “3H-thymidine incorporation in MLC” value ([5]; B + A (2 × 10^5), 0.025 mM) was 22129 ± 3893 CPM. The “3H-thymidine incorporation in MLC” value ([5]; B + A (2 × 10^5), 0.05 mM) was 24362 ± 2936 CPM, the “3H-thymidine incorporation in MLC” value ([5]; B + A (2 × 10^5), 0.2 mM) was 27737 ± 2105 CPM and the “3H-thymidine incorporation in MLC” value ([5]; B + A (2 × 10^5), 0.4 mM) was 28986 ± 1448 CPM. The “% Specific Cytotoxicity” value ([6]; compound (0.05)) was 9%, the “% Specific Cytotoxicity” value ([6]; compound (0.1)) was 22% and the “% Specific Cytotoxicity” value ([6]; compound (0.2)) was 26%. The “cytotoxic T lymphocyte activity” value ([6]; specific fresh phytohemagglutinin induced lymphoblasts) was “increased”.

Source: patent US4950647A, “T cell immunopotentiator” (Nucleic Acid Research Institute, priority 1988, dated 1990)
